# According to patent publication US20050282818A1, “Ubiquitin ligase inhibitors” (Rigel Pharmaceuticals, Inc., priority 2004, published 2005):
# Assays:
# [1] = system: ICAM-1 expression in A549 cells; assay: ICAM assay (IL-1 induced ICAM-1/CD54 expression in A549 cells); format: cell-based, human; conditions: Homo sapiens, A549, ICAM assay
# How it was run: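 Luminescent immunostaining (anti-CD54, then anti-mouse IgG, 1 h) quantifies ICAM-1 on A549 cells induced 4 h at 37° C by IL-1 (4 μl of 25 ng/ml added). Compound is added 1 h before the cytokine to cells plated overnight at 10,000 per well.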
# [2] = biological target: T1, TRAF6/Uev1A/Ubc13 (Homo sapiens, UniProt Q9Y4K3); assay: TRAF6/Uev1A/Ubc13 plate-based ubiquitin ligase assay; format: biochemical
# T1 sequence (Q9Y4K3 1-522): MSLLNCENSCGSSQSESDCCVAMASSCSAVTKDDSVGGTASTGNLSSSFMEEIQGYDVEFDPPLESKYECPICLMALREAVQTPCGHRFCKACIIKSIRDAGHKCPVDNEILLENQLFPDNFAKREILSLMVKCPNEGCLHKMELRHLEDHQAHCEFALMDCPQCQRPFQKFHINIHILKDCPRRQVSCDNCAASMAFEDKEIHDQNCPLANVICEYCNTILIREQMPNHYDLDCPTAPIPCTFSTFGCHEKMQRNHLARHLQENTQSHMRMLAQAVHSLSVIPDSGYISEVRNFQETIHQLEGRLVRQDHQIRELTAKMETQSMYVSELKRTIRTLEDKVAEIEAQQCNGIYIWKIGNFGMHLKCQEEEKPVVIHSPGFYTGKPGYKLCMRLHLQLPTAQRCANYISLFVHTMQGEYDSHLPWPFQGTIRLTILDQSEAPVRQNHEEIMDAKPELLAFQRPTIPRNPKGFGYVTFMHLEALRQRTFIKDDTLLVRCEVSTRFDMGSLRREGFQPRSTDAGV
# How it was run: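 Ligase activity was read as luminescence from anti-Flag/HRP detection of Flag-ubiquitin bound to casein-blocked Ni-plates alongside His-ubiquitin after a 1 h room-temperature reaction. Buffer: 62.5 mM Tris pH 7.5, 6.25 mM MgCl2, 1.0 mM DTT, 2 μM ATP; E1, Uev1a/Ubc13 and TRAF6 added last to start. IC50s derived across compound concentrations.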
# [3] = biological target: APC11/APC2 (Homo sapiens, UniProt Q9NYG5+Q9UJX6); assay: APC-11/APC-2 ligase assay (APC auto ubiquitination); format: biochemical; conditions: APC assay
# Chain of APC11/APC2 (Q9NYG5 whole entry): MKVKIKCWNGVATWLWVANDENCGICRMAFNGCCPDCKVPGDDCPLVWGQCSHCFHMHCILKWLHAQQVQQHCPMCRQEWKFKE
# Chain of APC11/APC2 (Q9UJX6 whole entry): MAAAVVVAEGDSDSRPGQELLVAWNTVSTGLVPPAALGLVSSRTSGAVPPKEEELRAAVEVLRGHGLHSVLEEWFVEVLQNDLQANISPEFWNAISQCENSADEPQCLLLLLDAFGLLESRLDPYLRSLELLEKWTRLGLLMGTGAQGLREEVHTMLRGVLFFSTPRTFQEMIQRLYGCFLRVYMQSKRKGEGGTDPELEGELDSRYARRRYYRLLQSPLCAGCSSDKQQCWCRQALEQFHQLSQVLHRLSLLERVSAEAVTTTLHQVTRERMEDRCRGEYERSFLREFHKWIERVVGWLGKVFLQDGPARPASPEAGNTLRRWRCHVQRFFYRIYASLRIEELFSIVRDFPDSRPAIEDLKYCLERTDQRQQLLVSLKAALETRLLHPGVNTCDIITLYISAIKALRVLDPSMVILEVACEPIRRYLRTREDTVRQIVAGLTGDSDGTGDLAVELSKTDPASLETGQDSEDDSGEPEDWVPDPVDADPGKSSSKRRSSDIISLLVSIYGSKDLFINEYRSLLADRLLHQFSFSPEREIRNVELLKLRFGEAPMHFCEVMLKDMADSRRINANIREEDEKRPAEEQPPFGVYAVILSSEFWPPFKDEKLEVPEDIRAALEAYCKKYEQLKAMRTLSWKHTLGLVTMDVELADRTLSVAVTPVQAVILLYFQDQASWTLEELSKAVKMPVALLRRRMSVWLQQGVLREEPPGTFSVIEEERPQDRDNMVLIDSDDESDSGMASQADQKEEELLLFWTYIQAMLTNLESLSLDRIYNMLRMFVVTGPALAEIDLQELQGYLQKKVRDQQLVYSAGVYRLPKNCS
# How it was run: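 His-tagged APC was captured on nickel plates with human E1 (5 ng/well), UbcH5c (20 ng/well), APC (100 ng/well) and Flag-ubiquitin (100 ng/well) in a Tris pH 7.6 reaction buffer containing 2.5 mM ATP, for 1 hour at room temperature. Read-out was anti-Flag/HRP chemiluminescence. IC50 was set against a DMSO control, typically from 6 or 8 concentrations.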
IC50 [1],IC50 [2],IC50 [3],SMILES
≥ 20 µM,≥ 20 µM,≥ 20 µM,"Fc1cc2nonc2c(N2CCOCC2)c1F [compound 405, 5,6-difluoro-4-(morpholin-4-yl)-2,1,3-benzoxadiazole]"
≥ 20 µM,≥ 20 µM,≥ 20 µM,"Fc1c(N2CCOCC2)cc2nonc2c1F [compound 406, 4,5-difluoro-6-(morpholin-4-yl)-2,1,3-benzoxadiazole]"
1 to 20 µM,1 to 20 µM,1 to 20 µM,"O=S(=O)(Nc1cccc2ccccc12)c1ccc(Sc2cccc3cccnc23)c2nonc12 [compound 407, N-(naphthalen-1-yl)-7-(quinolin-8-ylthio)-2,1,3-benzoxadiazole-4-sulfonamide]"
1 to 20 µM,≥ 20 µM,≥ 20 µM,"COc1cccc(Nc2ccc3nonc3c2S(=O)(=O)Nc2cccc(OC)c2OC)c1OC [compound 408, N-(2,3-dimethoxyphenyl)-5-([2,3-dimethoxyphenyl]amino)-2,1,3-benzoxadiazole-4-sulfonamide]"
1 to 20 µM,≥ 20 µM,≥ 20 µM,"COc1cccc(NS(=O)(=O)c2c(Cl)ccc3nonc23)c1OC [compound 409, 5-chloro-N-(2,3-dimethoxyphenyl)-2,1,3-benzoxadiazole-4-sulfonamide]"
1 to 20 µM,≥ 20 µM,≥ 20 µM,"COc1cccc(NS(=O)(=O)c2ccc(Cl)c3nonc23)c1OC [compound 410, 7-chloro-N-(2,3-dimethoxyphenyl)-2,1,3-benzoxadiazole-4-sulfonamide]"
1 to 20 µM,1 to 20 µM,≥ 20 µM,"O=S(=O)(c1c(Cl)cc(Cl)c2nonc12)N1CCOCC1 [compound 411, 5,7-dichloro-4-{(morpholin-4-yl)sulfonyl}-2,1,3-benzoxadiazole]"
1 to 20 µM,≥ 20 µM,≥ 20 µM,"O=S(=O)(c1c(N2CCOCC2)cc(Cl)c2nonc12)N1CCOCC1 [compound 412, 7-chloro-5-(morpholin-4-yl)-4-{(morpholin-4-yl)sulfonyl}-2,1,3-benzoxadiazole]"
1 to 20 µM,1 to 20 µM,1 to 20 µM,"COc1cccc(NS(=O)(=O)c2ccc(Sc3cccc4ccccc34)c3nonc23)c1OC [compound 413, N-(2,3-dimethoxyphenyl)-7-(naphthalen-1-ylthio)-2,1,3-benzoxadiazole-4-sulfonamide]"

# More lines, now with the values behind:
SMILES,IC50 [1],IC50 [2],IC50 [3]
"O=S(=O)(Nc1cccc2ccc(O)cc12)c1ccc(N2CCOCC2)c2nonc12 [compound 385, N-(7-hydroxynaphthalen-1-yl)-7-(morpholin-4-yl)-2,1,3-benzoxadiazole-4-sulfonamide]",≥ 20 µM,≥ 20 µM,≥ 20 µM
"COc1cc(C)ccc1NS(=O)(=O)c1ccc(N2CCOCC2)c2nonc12 [compound 386, N-(2-methoxy-4-methylphenyl)-7-(morpholin-4-yl)-2,1,3-benzoxadiazole-4-sulfonamide]",≥ 20 µM,≥ 20 µM,≥ 20 µM
"Nc1cccc2c(NS(=O)(=O)c3ccc(Cl)c4nonc34)cccc12 [compound 387, N-(5-aminonaphthalen-1-yl)-7-chloro-2,1,3-benzoxadiazole-4-sulfonamide]",1 to 20 µM,≥ 20 µM,≥ 20 µM
"O=[N+]([O-])c1ccc(NS(=O)(=O)c2ccc(Cl)c3nonc23)c2ccccc12 [compound 388, 7-chloro-N-(4-nitronaphthalen-1-yl)-2,1,3-benzoxadiazole-4-sulfonamide]",≥ 20 µM,≥ 20 µM,≥ 20 µM
Nc1cccc2c(NS(=O)(=O)c3ccc(N4CCOCC4)c4nonc34)cccc12 [compound 389],≥ 20 µM,≥ 20 µM,≥ 20 µM
"Nc1cccc2c(NS(=O)(=O)c3ccc(Sc4cccc5cccnc45)c4nonc34)cccc12 [compound 390, N-(5-aminonaphthalen-1-yl)-7-(quinolin-8-ylthio)-2,1,3-benzoxadiazole-4-sulfonamide]",≥ 20 µM,1 to 20 µM,1 to 20 µM
"Nc1ccc(OS(=O)(=O)c2ccc(Cl)c3nonc23)c2ccccc12 [compound 391, 4-aminonaphthalen-1-yl 7-chloro-2,1,3-benzoxadiazole-4-sulfonate]",1 to 20 µM,1 to 20 µM,1 to 20 µM
"O=S(=O)(Nc1cccc2ccccc12)c1ccc(Cl)c2nonc12 [compound 392, 7-chloro-N-(naphthalen-1-yl)-2,1,3-benzoxadiazole-4-sulfonamide]",1 to 20 µM,≥ 20 µM,≥ 20 µM
"O=S(=O)(Nc1ccc(O)c2ccccc12)c1ccc(Cl)c2nonc12 [compound 393, 7-chloro-N-(4-hydroxynaphthalen-1-yl)-2,1,3-benzoxadiazole-4-sulfonamide]",1 to 20 µM,1 to 20 µM,1 to 20 µM
"O=S(=O)(Nc1ccc(OS(=O)(=O)c2ccc(Cl)c3nonc23)c2ccccc12)c1ccc(Cl)c2nonc12 [compound 394, 4-(7-chloro-2,1,3-benzoxadiazole-4-sulfonamido)naphthalen-1-yl 7-chloro-2,1,3-benzoxadiazole-4-sulfonate]",1 to 20 µM,1 to 20 µM,1 to 20 µM
"Nc1ccc(Nc2cccc(F)c2F)c2nonc12 [compound 396, 7-{(2,3-difluorophenyl)amino}-2,1,3-benzoxadiazol-4-amine]",≥ 20 µM,≥ 20 µM,≥ 20 µM
"O=[N+]([O-])c1ccc(Nc2cccc(F)c2F)c2nonc12 [compound 397, N-(2,3-difluorophenyl)-7-nitro-2,1,3-benzoxadiazol-4-amine]",≥ 20 µM,≥ 20 µM,≥ 20 µM
"Nc1ccc(Nc2ccc3[nH]ncc3c2)c2nonc12 [compound 398, N-(1H-indazol-5-yl)-2,1,3-benzoxadiazole-4,7-diamine]",1 to 20 µM,≥ 20 µM,≥ 20 µM
"O=C(O)c1ccc(NS(=O)(=O)c2ccc(Cl)c3nonc23)cc1 [compound 399, 4-(7-chloro-2,1,3-benzoxadiazole-4-sulfonamido)benzoic acid]",≥ 20 µM,≥ 20 µM,≥ 20 µM
"O=[N+]([O-])c1ccc(Nc2ccccc2F)c2nonc12 [compound 401, N-(2-fluorophenyl)-7-nitro-2,1,3-benzoxadiazol-4-amine]",≥ 20 µM,≥ 20 µM,≥ 20 µM
"O=S(=O)(Nc1cccc(F)c1F)c1ccc(Sc2ccc(O)cc2)c2nonc12 [compound 402, N-(2,3-difluorophenyl)-7-([4-hydroxyphenyl]thio)-2,1,3-benzoxadiazole-4-sulfonamide]",≥ 20 µM,≥ 20 µM,1 to 20 µM
"COc1ccccc1C(=O)Nc1ccc(Nc2cccc(F)c2F)c2nonc12 [compound 403, N-(7-[{2,3-difluorophenyl}amino]-2,1,3-benzoxadiazol-4-yl)-2-methoxybenzamide]",≥ 20 µM,≥ 20 µM,≥ 20 µM
"COc1ccccc1Nc1ccc(S(=O)(=O)Nc2ccccc2F)c2nonc12 [compound 404, N-(2-fluorophenyl)-7-([2-methoxyphenyl]amino)-2,1,3-benzoxadiazole-4-sulfonamide]",≥ 20 µM,≥ 20 µM,≥ 20 µM
